Assay results reported in ChEMBL document CHEMBL1201862, “PubChem BioAssay data set” (2004).
Calls of active or inactive are those of the source.

Assays:
[1] = molecular target: SUMO-activating enzyme (Homo sapiens, UniProt Q9UBT2); assay: blockers of SAE1/SAE2–UBC9 SUMO transfer – biochemical, HTRF, uHTS, primary screen (AID 2006); type: protein-complex assay
[2] = molecular target: PglD (Campylobacter jejuni, UniProt O86157); assay: inhibition of C. jejuni PglD N-acetyltransferase – biochemical, DTNB absorbance, cherry-picked samples, set 2, dose response (AID 624257); type: functional
Chain of PglD (O86157 whole entry): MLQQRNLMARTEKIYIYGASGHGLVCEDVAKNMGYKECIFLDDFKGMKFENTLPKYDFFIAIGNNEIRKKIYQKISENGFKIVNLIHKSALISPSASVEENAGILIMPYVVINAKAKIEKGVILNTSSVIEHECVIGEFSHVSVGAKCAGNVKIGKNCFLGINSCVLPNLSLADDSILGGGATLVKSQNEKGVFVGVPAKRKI

[3] = molecular target: T1, Hexokinase HKDC1 (Homo sapiens, UniProt Q2TB90); assay: inhibition of HKDC1 glucose phosphorylation – biochemical, W721R variant, dose response (AID 504729); type: functional
T1 sequence (Q2TB90 whole entry): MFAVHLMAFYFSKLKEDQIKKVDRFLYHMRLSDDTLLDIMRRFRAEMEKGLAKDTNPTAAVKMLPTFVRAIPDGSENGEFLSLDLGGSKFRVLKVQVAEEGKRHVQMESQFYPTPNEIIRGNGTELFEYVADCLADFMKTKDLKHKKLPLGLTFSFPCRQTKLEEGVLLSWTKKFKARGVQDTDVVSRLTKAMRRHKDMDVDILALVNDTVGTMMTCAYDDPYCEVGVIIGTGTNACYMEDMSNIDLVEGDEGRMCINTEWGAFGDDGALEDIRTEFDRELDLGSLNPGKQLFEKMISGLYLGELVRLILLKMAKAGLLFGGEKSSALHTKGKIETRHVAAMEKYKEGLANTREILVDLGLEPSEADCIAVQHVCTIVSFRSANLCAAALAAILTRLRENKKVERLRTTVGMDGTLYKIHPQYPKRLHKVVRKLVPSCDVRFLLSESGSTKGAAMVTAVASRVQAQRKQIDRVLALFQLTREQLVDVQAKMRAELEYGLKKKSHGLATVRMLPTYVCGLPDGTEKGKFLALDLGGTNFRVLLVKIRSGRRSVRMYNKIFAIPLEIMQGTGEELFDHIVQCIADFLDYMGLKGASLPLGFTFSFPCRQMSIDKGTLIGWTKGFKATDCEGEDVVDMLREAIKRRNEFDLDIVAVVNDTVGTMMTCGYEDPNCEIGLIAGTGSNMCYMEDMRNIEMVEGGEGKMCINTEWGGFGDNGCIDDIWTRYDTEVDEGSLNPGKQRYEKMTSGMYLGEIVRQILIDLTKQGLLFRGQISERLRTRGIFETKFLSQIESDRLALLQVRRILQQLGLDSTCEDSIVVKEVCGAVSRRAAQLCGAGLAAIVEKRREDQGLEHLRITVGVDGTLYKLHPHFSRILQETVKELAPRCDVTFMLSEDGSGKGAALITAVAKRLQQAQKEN

[4] = molecular target: Mitogen-activated protein kinase 13 (Homo sapiens, UniProt O15264); type: functional
Chain of Mitogen-activated protein kinase 13 (O15264 whole entry, canonical isoform): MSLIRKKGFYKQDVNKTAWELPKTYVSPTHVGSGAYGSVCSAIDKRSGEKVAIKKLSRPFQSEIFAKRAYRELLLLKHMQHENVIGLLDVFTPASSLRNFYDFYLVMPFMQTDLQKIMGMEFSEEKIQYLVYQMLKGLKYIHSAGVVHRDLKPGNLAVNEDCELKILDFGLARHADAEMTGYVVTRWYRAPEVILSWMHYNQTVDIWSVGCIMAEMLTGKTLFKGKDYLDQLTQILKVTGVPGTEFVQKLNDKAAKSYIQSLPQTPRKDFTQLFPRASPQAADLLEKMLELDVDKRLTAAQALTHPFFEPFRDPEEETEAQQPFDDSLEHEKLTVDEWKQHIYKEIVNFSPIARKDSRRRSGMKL

[5] = molecular target: Casein kinase I isoform gamma-1 (Homo sapiens, UniProt Q9HCP0); type: functional;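 note: measured as the CSNK1G1 member of a kinome profiling panel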
[6] = molecular target: Interleukin-1 receptor-associated kinase 1 (Homo sapiens, UniProt P51617); type: functional;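 note: IRAK1 tested as one member of a kinome panel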
[7] = molecular target: Misshapen-like kinase 1 (Homo sapiens, UniProt Q8N4C8); type: functional;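 note: kinome panel screen with MINK as the panel member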
[8] = molecular target: Mitogen-activated protein kinase kinase kinase 20 (Homo sapiens, UniProt Q9NYL2); type: functional
[9] = molecular target: Eukaryotic elongation factor 2 kinase (Homo sapiens, UniProt O00418); type: functional
[10] = molecular target: Calcium/calmodulin-dependent protein kinase type II subunit delta (Homo sapiens, UniProt Q13557); type: functional
Chain of Calcium/calmodulin-dependent protein kinase type II subunit delta (Q13557 whole entry): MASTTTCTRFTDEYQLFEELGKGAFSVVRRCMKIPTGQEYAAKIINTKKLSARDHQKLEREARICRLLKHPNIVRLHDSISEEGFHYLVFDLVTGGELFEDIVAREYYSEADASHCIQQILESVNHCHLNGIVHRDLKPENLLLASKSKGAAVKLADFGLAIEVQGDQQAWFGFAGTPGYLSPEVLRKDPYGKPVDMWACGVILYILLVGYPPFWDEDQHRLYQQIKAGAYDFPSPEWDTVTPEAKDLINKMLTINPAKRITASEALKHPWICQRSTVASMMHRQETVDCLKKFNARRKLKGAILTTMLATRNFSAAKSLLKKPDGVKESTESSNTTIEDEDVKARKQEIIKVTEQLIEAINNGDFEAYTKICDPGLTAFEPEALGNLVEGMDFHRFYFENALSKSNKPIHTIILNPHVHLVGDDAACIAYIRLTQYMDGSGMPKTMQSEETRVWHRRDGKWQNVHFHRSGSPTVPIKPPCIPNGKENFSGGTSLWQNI

[11] = molecular target: Rho-associated protein kinase 2 (Homo sapiens, UniProt O75116); type: functional
[12] = molecular target: Megakaryocyte-associated tyrosine-protein kinase (Homo sapiens, UniProt P42679); type: functional;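 note: affinity measured as one member of a kinase panel (Navigating the Kinome) against MATK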
Chain of Megakaryocyte-associated tyrosine-protein kinase (P42679 whole entry): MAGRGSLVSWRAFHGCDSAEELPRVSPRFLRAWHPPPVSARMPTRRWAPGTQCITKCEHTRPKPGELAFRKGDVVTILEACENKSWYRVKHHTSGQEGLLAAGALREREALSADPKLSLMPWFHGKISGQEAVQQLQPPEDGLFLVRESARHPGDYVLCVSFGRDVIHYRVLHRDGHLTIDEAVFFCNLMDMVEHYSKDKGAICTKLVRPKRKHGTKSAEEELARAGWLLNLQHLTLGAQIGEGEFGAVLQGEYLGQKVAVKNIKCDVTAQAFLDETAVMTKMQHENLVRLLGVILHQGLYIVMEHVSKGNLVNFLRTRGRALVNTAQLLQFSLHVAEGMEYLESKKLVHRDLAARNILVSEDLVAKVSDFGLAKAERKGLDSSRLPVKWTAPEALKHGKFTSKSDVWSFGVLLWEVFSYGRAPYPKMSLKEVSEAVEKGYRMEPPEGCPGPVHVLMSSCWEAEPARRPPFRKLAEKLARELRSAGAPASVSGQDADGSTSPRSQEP

[13] = molecular target: Ribosomal protein S6 kinase alpha-5 (Homo sapiens, UniProt O75582); type: functional
[14] = molecular target: Testis-specific serine/threonine-protein kinase 2 (Homo sapiens, UniProt Q96PF2); type: functional;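 note: part of the Navigating the Kinome panel, target entry STK22B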
[15] = molecular target: Serine/threonine-protein kinase PLK1 (Homo sapiens, UniProt P53350); type: functional;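 note: PLK1 measured as one member of a kinome-wide profiling panel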
Chain of Serine/threonine-protein kinase PLK1 (P53350 whole entry): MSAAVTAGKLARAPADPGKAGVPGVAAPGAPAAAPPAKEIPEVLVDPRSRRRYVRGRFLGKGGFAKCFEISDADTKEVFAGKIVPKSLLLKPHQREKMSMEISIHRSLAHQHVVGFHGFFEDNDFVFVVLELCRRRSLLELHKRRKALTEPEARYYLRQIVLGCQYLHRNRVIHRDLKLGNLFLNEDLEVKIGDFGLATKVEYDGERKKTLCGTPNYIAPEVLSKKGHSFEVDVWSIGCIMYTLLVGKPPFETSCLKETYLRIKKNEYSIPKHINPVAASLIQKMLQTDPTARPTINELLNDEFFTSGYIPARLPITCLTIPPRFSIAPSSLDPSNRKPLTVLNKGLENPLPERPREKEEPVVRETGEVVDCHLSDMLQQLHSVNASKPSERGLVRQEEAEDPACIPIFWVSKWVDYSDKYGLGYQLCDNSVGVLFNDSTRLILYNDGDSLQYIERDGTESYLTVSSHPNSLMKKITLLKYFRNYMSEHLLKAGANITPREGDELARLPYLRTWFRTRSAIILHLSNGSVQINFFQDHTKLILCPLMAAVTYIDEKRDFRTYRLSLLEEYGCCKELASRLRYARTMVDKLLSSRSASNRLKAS

[16] = molecular target: Serine/threonine-protein kinase pim-1 (Homo sapiens, UniProt P11309); type: functional
[17] = molecular target: Protein kinase C delta type (Homo sapiens, UniProt Q05655); type: functional
[18] = molecular target: Serine/threonine-protein kinase PLK3 (Homo sapiens, UniProt Q9H4B4); type: functional
Chain of Serine/threonine-protein kinase PLK3 (Q9H4B4 whole entry, the tested form may be a part): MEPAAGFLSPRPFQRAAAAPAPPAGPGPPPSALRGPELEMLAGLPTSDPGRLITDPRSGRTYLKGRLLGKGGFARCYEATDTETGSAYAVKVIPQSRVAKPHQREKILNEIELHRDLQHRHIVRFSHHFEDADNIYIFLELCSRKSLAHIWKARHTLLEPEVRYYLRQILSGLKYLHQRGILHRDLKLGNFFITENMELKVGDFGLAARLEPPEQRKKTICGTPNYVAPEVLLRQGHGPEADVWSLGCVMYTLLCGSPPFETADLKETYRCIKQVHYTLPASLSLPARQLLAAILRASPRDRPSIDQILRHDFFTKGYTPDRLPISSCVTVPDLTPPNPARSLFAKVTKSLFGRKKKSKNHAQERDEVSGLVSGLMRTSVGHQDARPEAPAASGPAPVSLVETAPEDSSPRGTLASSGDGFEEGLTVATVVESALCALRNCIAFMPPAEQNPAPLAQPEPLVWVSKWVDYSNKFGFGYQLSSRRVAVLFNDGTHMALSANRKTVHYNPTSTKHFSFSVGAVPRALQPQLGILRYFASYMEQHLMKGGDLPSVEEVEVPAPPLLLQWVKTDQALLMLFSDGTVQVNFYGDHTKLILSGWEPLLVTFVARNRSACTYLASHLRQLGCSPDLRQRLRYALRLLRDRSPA

[19] = molecular target: LIM domain kinase 1 (Homo sapiens, UniProt P53667); assay: Navigating the Kinome. Panel member name: LIMK1; type: functional
Chain of LIM domain kinase 1 (P53667 whole entry, the tested form may be a part): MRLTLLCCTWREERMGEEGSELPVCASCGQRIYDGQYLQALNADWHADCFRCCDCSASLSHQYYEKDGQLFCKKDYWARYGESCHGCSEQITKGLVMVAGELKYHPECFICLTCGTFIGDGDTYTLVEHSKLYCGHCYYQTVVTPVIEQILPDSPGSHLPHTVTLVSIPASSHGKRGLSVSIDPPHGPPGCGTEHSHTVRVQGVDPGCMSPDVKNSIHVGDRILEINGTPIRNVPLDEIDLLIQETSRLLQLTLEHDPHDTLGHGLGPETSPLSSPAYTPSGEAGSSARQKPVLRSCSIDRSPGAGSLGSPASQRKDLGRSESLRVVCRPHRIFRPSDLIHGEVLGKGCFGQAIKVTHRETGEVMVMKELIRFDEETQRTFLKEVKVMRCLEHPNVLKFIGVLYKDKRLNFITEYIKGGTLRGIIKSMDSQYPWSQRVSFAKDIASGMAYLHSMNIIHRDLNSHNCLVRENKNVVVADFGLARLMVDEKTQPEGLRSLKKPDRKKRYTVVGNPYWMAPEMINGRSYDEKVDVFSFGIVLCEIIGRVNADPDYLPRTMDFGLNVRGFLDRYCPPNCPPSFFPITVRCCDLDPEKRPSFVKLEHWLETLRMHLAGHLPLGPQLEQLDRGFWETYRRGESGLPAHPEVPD

[20] = molecular target: Tyrosine-protein kinase Lck (Homo sapiens, UniProt P06239); type: functional;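 note: lck was assayed as one member of a kinase panel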
Chain of Tyrosine-protein kinase Lck (P06239 whole entry): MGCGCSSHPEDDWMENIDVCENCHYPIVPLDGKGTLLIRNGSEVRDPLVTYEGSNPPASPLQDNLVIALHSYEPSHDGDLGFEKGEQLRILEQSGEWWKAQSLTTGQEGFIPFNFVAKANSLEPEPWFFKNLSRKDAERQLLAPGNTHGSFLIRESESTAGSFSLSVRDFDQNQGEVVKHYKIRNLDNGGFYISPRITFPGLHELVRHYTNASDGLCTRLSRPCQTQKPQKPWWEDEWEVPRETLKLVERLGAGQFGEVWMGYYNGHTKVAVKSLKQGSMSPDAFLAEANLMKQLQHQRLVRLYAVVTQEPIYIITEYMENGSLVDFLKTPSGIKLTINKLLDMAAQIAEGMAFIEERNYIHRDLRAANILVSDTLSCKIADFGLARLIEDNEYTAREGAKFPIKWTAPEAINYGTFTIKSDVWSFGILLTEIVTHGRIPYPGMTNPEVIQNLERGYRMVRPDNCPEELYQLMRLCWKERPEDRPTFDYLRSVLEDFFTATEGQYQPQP

Chain of SUMO-activating enzyme (Q9UBE0 whole entry): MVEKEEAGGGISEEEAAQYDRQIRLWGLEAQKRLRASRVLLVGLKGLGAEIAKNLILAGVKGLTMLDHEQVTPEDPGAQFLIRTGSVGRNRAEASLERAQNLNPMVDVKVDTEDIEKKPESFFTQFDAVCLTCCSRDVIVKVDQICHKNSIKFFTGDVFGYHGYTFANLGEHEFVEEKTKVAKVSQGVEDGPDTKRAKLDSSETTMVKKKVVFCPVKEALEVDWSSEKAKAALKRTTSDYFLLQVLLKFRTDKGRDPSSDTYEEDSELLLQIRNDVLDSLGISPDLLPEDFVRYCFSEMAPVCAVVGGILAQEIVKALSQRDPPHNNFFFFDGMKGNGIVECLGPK
Chain of SUMO-activating enzyme (Q9UBT2 whole entry): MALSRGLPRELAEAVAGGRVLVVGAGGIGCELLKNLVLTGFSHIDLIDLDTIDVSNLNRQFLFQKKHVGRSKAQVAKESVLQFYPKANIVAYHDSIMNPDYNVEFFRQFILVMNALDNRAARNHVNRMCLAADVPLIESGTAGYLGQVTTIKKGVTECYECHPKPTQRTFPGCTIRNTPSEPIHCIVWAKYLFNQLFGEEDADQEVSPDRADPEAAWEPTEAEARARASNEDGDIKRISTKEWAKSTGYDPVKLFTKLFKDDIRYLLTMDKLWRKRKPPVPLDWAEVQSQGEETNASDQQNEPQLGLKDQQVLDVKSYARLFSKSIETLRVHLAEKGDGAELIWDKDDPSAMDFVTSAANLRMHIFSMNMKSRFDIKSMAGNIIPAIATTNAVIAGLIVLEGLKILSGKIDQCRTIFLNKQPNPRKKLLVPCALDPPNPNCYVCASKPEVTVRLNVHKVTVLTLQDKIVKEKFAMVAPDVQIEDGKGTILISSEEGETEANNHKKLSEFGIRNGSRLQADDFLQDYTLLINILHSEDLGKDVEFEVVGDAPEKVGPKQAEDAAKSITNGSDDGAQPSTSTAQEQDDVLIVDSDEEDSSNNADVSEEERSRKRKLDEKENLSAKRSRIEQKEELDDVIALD

CC(=O)NC1C(=O)N(CCN2CCOCC2)c2ccc(Cl)cc21 (stereo not given)
IC50 [1]: 13.4 µM (active)
AC50 [2]: 17.5 µM (active)
IC50 [3]: 6.75 µM (active)

Cc1n[nH]c2cnc(-c3cncc(OCC(N)Cc4cccc(C(F)(F)F)c4)c3)cc12 (stereo not given)
Ki [4]: 1.58 µM (active)
Ki [5]: 0.0631 µM (active)
Ki [6]: 0.316 µM (active)
Ki [7]: 0.00398 µM (active)
Ki [8]: > 7.94 µM (inactive)
Ki [9]: > 3.98 µM (inactive)
Ki [10]: 0.00501 µM (active)
Ki [11]: 0.02 µM (active)
Ki [12]: > 2 µM (inactive)
Ki [13]: 0.0794 µM (active)
Ki [14]: 0.0794 µM (active)

Cc1c(C=O)c(O)n2c(nc3ccccc32)c1C#N
Ki [15]: 1.26 µM (active)
Ki [16]: 0.158 µM (active)
Ki [17]: > 7.94 µM (inactive)
Ki [18]: 0.794 µM (active)
Ki [19]: 3.16 µM (active)
Ki [20]: > 2.51 µM (inactive)
